Reference: patent publication US9486466B2, “Veliparib in combination with carboplatin for the treatment of triple negative breast cancer” (AbbVie Inc., priority 2013, dated 2016)

System: early-stage triple negative breast cancer
Test: Phase 2 randomized open label study of veliparib and carboplatin with standard neoadjuvant chemotherapy; pathologic complete response
Type: in vivo, human
Source text: Pathological Complete Response (pCR) is the absence of any residual invasive cancer on hematoxylin and eosin evaluation of the resected breast specimen and any resected lymph node tissue following completion of neoadjuvant systemic therapy.
This example is a Phase 2, interventional, randomized, open label study evaluating the safety and efficacy of veliparib and carboplatin administered concurrently with standard chemotherapy in subjects with early-stage triple negative breast cancer.
Patients received 50 mg po bid during the 12 weekly treatment cycles post-randomization and carboplatin: AUC 6 IV every three weeks for […] during the 12 weekly treatment cycles post-randomization with standard chemotherapy or alternatively standard chemotherapy alone. Standard chemotherapy was paclitaxel: 80 mg/m^2 IV during the 12 weekly treatment cycles post randomization; doxorubicin: 60 mg/m^2 IV after completion of the 12 weekly treatment cycles and prior to surgery for weeks 13-16; cyclophosphamide: 600 mg/m^2 IV after completion of the 12 weekly treatment cycles and prior to surgery for weeks 13-16.
Determine whether adding veliparib and carboplatin to standard neoadjuvant medications increases the probability of pathologic complete response (pCR) over standard neoadjuvant chemotherapy for triple negative breast cancer. […]

C[C@]1(c2nc3c(C(N)=O)cccc3[nH]2)CCCN1 [Veliparib arm, 2-[(2R)-2-methylpyrrolidin-2-yl]-1H-benzimidazole-4-carboxamide]
pCR % (patients with triple negative breast cancer, neoadjuvant therapy followed by surgery, veliparib arm: veliparib 50 mg po bid + carboplatin AUC 6 IV during the 12 weekly cycles, added to standard chemotherapy (paclitaxel, then doxorubicin/cyclophosphamide), control arm: standard chemotherapy alone): 56% (n = 39)
effect on number of women achieving pCR status (veliparib and carboplatin added to standard of care, neoadjuvant setting, early triple negative breast cancer): increases the number of women that achieve pCR status
